Measured values from the supplement of paper PMC10307832.

What was measured:
Test in all cases: relative viability (nuclei count vs DMSO), 5 days (fraction); higher = more cells survive
SW 1573 = system: SW 1573
Procedure, shortened: (§1)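 Cells from lung cancer lines were seeded into 1536-well plates and, one day later, dosed by pin tool. Treatments were either a single drug or a fixed dose of an anchor drug with five library-drug doses (not always all listed) in √10 steps. After 5 days, nuclei were stained in a one-step fixation (final 0.05% Triton X-100, 1% formaldehyde, 1 ug/ml Hoechst) and counted on 4× images, and relative viability is the treated-to-vehicle nuclei ratio, as the median of duplicate plates.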

NCI-H596 = system: NCI-H596
Procedure, shortened: as §1

LC-2-ad = system: LC-2-ad
Procedure, shortened: as §1

NCI-H2023 = system: NCI-H2023
Procedure, shortened: as §1

NCI-H358 = system: NCI-H358
Procedure, shortened: as §1

NCI-H2347 = system: NCI-H2347
Procedure, shortened: as §1

NCI-H1993 = system: NCI-H1993
Procedure, shortened: as §1

NCI-H441 = system: NCI-H441
Procedure, shortened: as §1

NCI-H1650 = system: NCI-H1650
Procedure, shortened: as §1

NCI-H520 = system: NCI-H520
Procedure, shortened: as §1

NCI-H522 = system: NCI-H522
Procedure, shortened: as §1

SMILES: C=C1C(=O)O[C@@H](CCCCCCCC)[C@@H]1C(=O)O [C-75] + Nc1nc2[nH]cc(CCc3ccc(C(=O)N[C@@H](CCC(=O)O)C(=O)O)cc3)c2c(=O)[nH]1 [Pemetrexed] (partner 0.2 µM)
- relative viability (SW 1573; first compound 0.08 µM): 0.947
- relative viability (SW 1573; first compound 0.253 µM): 0.874
- relative viability (SW 1573; first compound 0.8 µM): 0.728
- relative viability (SW 1573; first compound 2.53 µM): 0.684
- relative viability (SW 1573; first compound 8 µM): 0.706
- relative viability (NCI-H596; first compound 0.08 µM): 0.503
- relative viability (NCI-H596; first compound 0.253 µM): 0.432
- relative viability (NCI-H596; first compound 0.8 µM): 0.461
- relative viability (NCI-H596; first compound 2.53 µM): 0.47
- relative viability (NCI-H596; first compound 8 µM): 0.481
- relative viability (LC-2-ad; first compound 0.08 µM): 0.283
- relative viability (LC-2-ad; first compound 0.253 µM): 0.265
- relative viability (LC-2-ad; first compound 0.8 µM): 0.285
- relative viability (LC-2-ad; first compound 2.53 µM): 0.279
- relative viability (LC-2-ad; first compound 8 µM): 0.271
- relative viability (NCI-H2023; first compound 0.08 µM): 0.246
- relative viability (NCI-H2023; first compound 0.253 µM): 0.265
- relative viability (NCI-H2023; first compound 0.8 µM): 0.242
- relative viability (NCI-H2023; first compound 2.53 µM): 0.171
- relative viability (NCI-H2023; first compound 8 µM): 0.21
- relative viability (NCI-H358; first compound 0.08 µM): 0.169
- relative viability (NCI-H358; first compound 0.253 µM): 0.185
- relative viability (NCI-H358; first compound 0.8 µM): 0.168
- relative viability (NCI-H358; first compound 8 µM): 0.189
- relative viability (NCI-H2347; first compound 0.08 µM): 0.402
- relative viability (NCI-H2347; first compound 0.253 µM): 0.388
- relative viability (NCI-H2347; first compound 0.8 µM): 0.442
- relative viability (NCI-H2347; first compound 2.53 µM): 0.447
- relative viability (NCI-H2347; first compound 8 µM): 0.48
- relative viability (NCI-H1993; first compound 0.08 µM): 0.564
- relative viability (NCI-H1993; first compound 0.253 µM): 0.716
- relative viability (NCI-H1993; first compound 0.8 µM): 0.541
- relative viability (NCI-H1993; first compound 2.53 µM): 0.652
- relative viability (NCI-H1993; first compound 8 µM): 0.478
- relative viability (NCI-H441; first compound 0.08 µM): 0.295
- relative viability (NCI-H441; first compound 0.253 µM): 0.278
- relative viability (NCI-H441; first compound 0.8 µM): 0.283
- relative viability (NCI-H441; first compound 8 µM): 0.263
- relative viability (NCI-H1650; first compound 0.08 µM): 0.365
- relative viability (NCI-H1650; first compound 0.253 µM): 0.401
- relative viability (NCI-H1650; first compound 0.8 µM): 0.384
- relative viability (NCI-H1650; first compound 8 µM): 0.372
- relative viability (NCI-H520; first compound 0.08 µM): 0.62
- relative viability (NCI-H520; first compound 0.253 µM): 0.669
- relative viability (NCI-H520; first compound 0.8 µM): 0.643
- relative viability (NCI-H520; first compound 2.53 µM): 0.578
- relative viability (NCI-H520; first compound 8 µM): 0.55
- relative viability (NCI-H522; first compound 0.08 µM): 1.02
- relative viability (NCI-H522; first compound 0.253 µM): 0.76
- relative viability (NCI-H522; first compound 0.8 µM): 0.828
- relative viability (NCI-H522; first compound 2.53 µM): 0.869
